Test results reported in the NIST ThermoML archive (doi:10.1021/je060271a).

Settings: 283.16 K, Liquid, Vibrating tube method

CCCC(=O)OCC(COC(=O)CCC)(COC(=O)CCC)COC(=O)CCC [pentaerythritol tetrabutyrate]
Settings	mass density [kg/m3]
5025.9 kPa	1062
5026.2 kPa	1062.1
5026.4 kPa	1061.9
5026.6 kPa	1061.9
5037.7 kPa	1062
5052.7 kPa	1062
5084.5 kPa	1061.9
5099.4 kPa	1062.1
5117.2 kPa	1062.1
5132.1 kPa	1062.1
5146.8 kPa	1062.1
5164.5 kPa	1062.1
5180.2 kPa	1062
5195.4 kPa	1062.1
5213.6 kPa	1062.2
5229.7 kPa	1062.1
5245.8 kPa	1062.1
5261.4 kPa	1062.2
5277.3 kPa	1062.1
5296.5 kPa	1062.2
5312.6 kPa	1062.2
5328.5 kPa	1062.1
5347.8 kPa	1062.1
5364.8 kPa	1062.2
5381.7 kPa	1062.1
5398.7 kPa	1062.3
5419.8 kPa	1062.2
5436.6 kPa	1062.3
5450.9 kPa	1062.3
5465.9 kPa	1062.2
5510.3 kPa	1062.3
5516.6 kPa	1062.3
5521.7 kPa	1062.3
5526.9 kPa	1062.3
5532.8 kPa	1062.3
5538.2 kPa	1062.2
5543.2 kPa	1062.3
5548.7 kPa	1062.2
5553.9 kPa	1062.3
5560.3 kPa	1062.2
5565.4 kPa	1062.2
5570.9 kPa	1062.4
5577.1 kPa	1062.3
5582.3 kPa	1062.3
5587.5 kPa	1062.3
5592.9 kPa	1062.4
5599.3 kPa	1062.2
5604.6 kPa	1062.4
5610 kPa	1062.4
5616.4 kPa	1062.4
5621.6 kPa	1062.3
5627.3 kPa	1062.3
5632.6 kPa	1062.3
5639.2 kPa	1062.3
5644.4 kPa	1062.3
5649.9 kPa	1062.3
5655.3 kPa	1062.3
5661.7 kPa	1062.4
5667.2 kPa	1062.2
5674 kPa	1062.4
5679.3 kPa	1062.4
5684.7 kPa	1062.3
5690 kPa	1062.3
5696.8 kPa	1062.3
5702.1 kPa	1062.4
5707.9 kPa	1062.3
5713.6 kPa	1062.5
5720.3 kPa	1062.4
5725.5 kPa	1062.5
5731.2 kPa	1062.4
5736.6 kPa	1062.5
5743.3 kPa	1062.3
5749 kPa	1062.4
5754.4 kPa	1062.4
5761.1 kPa	1062.4
5766.6 kPa	1062.4
5773.7 kPa	1062.5
5779.1 kPa	1062.4
5803.1 kPa	1062.5
5808.7 kPa	1062.4
5814.4 kPa	1062.5
5821.5 kPa	1062.5
5827.2 kPa	1062.4
5833 kPa	1062.4
5839.6 kPa	1062.5
5845.5 kPa	1062.5
5851.5 kPa	1062.4
5857.2 kPa	1062.5
5864.2 kPa	1062.5
5869.9 kPa	1062.5
5876.8 kPa	1062.5
5882.3 kPa	1062.4
5888.4 kPa	1062.6
5894.6 kPa	1062.4
5901.3 kPa	1062.5
5907.2 kPa	1062.5
5913.3 kPa	1062.5
5919.5 kPa	1062.5
5926.4 kPa	1062.5
5932.3 kPa	1062.6
5938.5 kPa	1062.6
5944.6 kPa	1062.5
5951.6 kPa	1062.5
5957.7 kPa	1062.5
5963.8 kPa	1062.5
5971 kPa	1062.5
5977.1 kPa	1062.7
5983.3 kPa	1062.6
5989.3 kPa	1062.6
5996.6 kPa	1062.6
6002.8 kPa	1062.6
6009.4 kPa	1062.5
6016.2 kPa	1062.6
6022.5 kPa	1062.7
6029.9 kPa	1062.5
6036 kPa	1062.6
6042.3 kPa	1062.6
6048.4 kPa	1062.6
6056 kPa	1062.7
6062 kPa	1062.6
6068.3 kPa	1062.6
6075.9 kPa	1062.6
6082.1 kPa	1062.6
6088.5 kPa	1062.6
6095.2 kPa	1062.7
6100.5 kPa	1062.6
6106.9 kPa	1062.6
6114.5 kPa	1062.7
6120.9 kPa	1062.6
6127.1 kPa	1062.6
6134.7 kPa	1062.6
6140.7 kPa	1062.6
6147.1 kPa	1062.7
6153.9 kPa	1062.7
6161.5 kPa	1062.6
6167.9 kPa	1062.6
6174.6 kPa	1062.7
6182.6 kPa	1062.6
6188.8 kPa	1062.7
6195.4 kPa	1062.8
6202.1 kPa	1062.6
6210.1 kPa	1062.8
6216.6 kPa	1062.6
6223.4 kPa	1062.6
6229.9 kPa	1062.6
6237.5 kPa	1062.7
